In US6319501A, “Method of immunizing against hepatitis B virus” (Health Research, Inc., priority 1993, dated 2001):
Read-outs that look alike come from different tables or passages of the source. Ends that are not written are not given here.

Assays:
[1] = tested on: antibodies recognizing the (139-147) segment of the S-protein (reaction with HBsAg); test: Inhibition of attachment of antibodies recognizing S(139-147) to HBsAg-coated wells (comparative antigenicity of replacement set peptides); format: binding, rabbit
Experimental: FIG. 1. concerns the relative inhibitory activity of replacement set peptides on the reaction of antibodies recognizing the (139-147) segment of the S-protein with HBsAg. The concentration of each peptide at which the attachment of antibodies to solid phase HBsAg was reduced by 50% (C50) was determined. C50 of the parent peptide (sequence shown on top of the bars) was divided by C50 for each inhibitory peptide and the log10 of the ratio was plotted on the ordinate. Amino acid residues replacing amino acids in the parent sequence are shown on the top of each bar. The sequence numbers of residues being replaced in the parent sequence are shown on the bottom of the bar groups.
Wells of 96-well polystryene plates (Removawell, Immunolon II, Dynatech Laboratories, Chantilly, Va.) were coated with HBsAg subtype adw (200 μl; 100 μg/ml in 0.01 M Tris HCl pH 8.8) overnight at 20° C. The wells were then coated with a mixture of bovine serum albumin (BSA) and gelatin (10 and 2.5 mg/ml, respectively) in 0.14 M NaCl, 0.01 M Tris, 0.02% NaN3 (TS). […] The diluted antiserum, without added peptides, and normal rabbit serum served as positive and negative controls, respectively. Aliquots of the diluted rabbit sera with or without the peptides (200 μl) were added to the HBsAg-coated wells. After overnight incubation at 25° C., the plates were washed with 200 μl of TS and ^125 I-labeled anti-rabbit IgG (Kirkegaard & Perry Laboratories, Inc., Gaithersburg, Md.; 200,000 cpm diluted 1:1 with TSBG) were added to the wells. After incubation for 2 hours at 37° C., the wells were washed with TS and counted for radioactivity. Radioactivity, corrected for counts corresponding to diluted normal rabbit serum, was plotted against the log10 of the concentration of the respective peptides. […]

[2] = tested on: Murine T cells primed with HBsAg, subtype ayr; test: In vitro proliferation (3H-TdR incorporation) of T cells from Balb/c mice primed with HBsAg subtype ayr (FIG. 3); format: cell-based, mouse (Balb/c)
Text: FIG. 3. depicts relative T cell-stimulatory activity of replacement set peptides expressed as a percentage of stimulation elicited by the parent peptide. Murine T cells were obtained by nylon wool column purification of Balb/c lymph node cells primed with HBsAg, subtype ayr (Scripps Laboratories, San Diego, Calif.). For comparison, the T cell-stimulatory response to rHBsAg, subtype ad(32,657), HBsAg subtype ayr (54,640), parent peptide (16,073=100%) and media control (330) were examined at optimal concentrations for each antigen. Values shown in parentheses are mean cpms corresponding to ^3 H-TdR incorporation measured in triplicate. Amino acid residues replacing amino acids in the parent sequence are shown at the bottom of the bars.
(§1) Balb/c mice were immunized in the hind foot pads, either with 0.5 μg of RecombiVax HB or with HBsAg subtype ayw (Scripps Laboratories), on day 0, 14 and 21. One week after the last injection, the animals were sacrificed and the popliteal lymph nodes were collected. The nodes were teased apart and the dispersed cells were then washed twice in RPMI-1640 medium without any serum supplement and once in RPMI medium containing 10% bovine calf serum. A cell count was made and the cell concentration was adjusted so that T cell enrichment was then done at 1×10^8 cells/0.6g of packed nylon wool column. […]

[3] = tested on: Murine T cells primed to rHBsAg, subtype ad; test: In vitro proliferation (3H-TdR incorporation) of T cells from Balb/c mice primed with rHBsAg subtype ad (FIG. 4); format: cell-based, mouse (Balb/c); details: mice primed with HBsAg ad
Text: FIG. 4. depicts relative T cell-stimulatory activity of replacement set peptides expressed as a percentage of stimulation elicited by the parent peptide. Murine T cells were obtained by nylon wool column purification of Balb/c lymph node cells primed to rHBsAg, subtype ad (RecombiVax HB, Merck Sharp & Dohme). For comparison the T cells-stimulatory response to rHBsAg, subtype ad (97,024), rHBsAg subtype ayr (64,878), parent peptide (44,916=100%) and media control (1,873) was examined at optimal concentrations for each antigen. Values shown in parentheses are mean cpms corresponding to ^3 H-TdR incorporation measured in triplicate. Amino acid residues replacing amino acids in the parent sequence are shown at the bottom of the bars.
as §1

[4] = tested on: Human peripheral blood mononuclear cells (PBMC); test: In vitro proliferation (3H-TdR incorporation) of human PBMC / T cells from rHBsAg vaccinees (FIG. 5); format: cell-based; details: humans immunized with recombinant HBsAg vaccine
Text: Human peripheral blood mononuclear cells (PBMC) were obtained from volunteers who had received the full course of the rHBsAg vaccine (Merck Sharp & Dohme). Donor 1 .box-solid. Donor 2 z1 Donor 3 .quadrature. Donor 4 z2 For comparison average T cell-stimulatory response to rHBsAg subtype ad (146,478), parent peptide (96,930=100%) and media control (1,147) was examined at optimal concentrations for each antigen. Values expressed in parentheses are mean cpms of ^3 H-TdR incorporation of triplicate wells. Amino acid residues replacing amino acids in the parent sequence are shown at the bottom of the bars.
Sixty ml of blood was collected (in heparin containing syringes) from the antecubital vein of individuals who were vaccinated with a recombinant hepatitis B vaccine (RecombiVax HB; Merck, Sharp and Dohme). […]
Peripheral blood mononuclear cells were cultured in 96 well flat bottom plates at a density of 2.5×10^5 cells/100 μl per well in RPMI-1640 medium supplemented with 2mM glutamine, 100 units/ml penicillin, 100 μg/ml streptomycin, 50 μg/ml gentamycin and 10% human AB-positive serum. […] Proliferation, as measured by thymidine incorporation, was determined by liquid scintillation spectroscopy. Results are expressed as mean counts per minute (cpm) for triplicate cultures.

anti-HBs = details: cited from earlier work
native HBsAg = details: after polymerization with glutaraldehyde; cited from earlier work
[5] = tested on: T-helper (Th) lymphocytes; details: humans immunized with HBsAg; linear and cyclic forms; cited from earlier work
[6] = tested on: T-helper (Th) lymphocytes; details: mice immunized with HBsAg; linear and cyclic forms; cited from earlier work

CTKPTDGNC [S(139-147) peptide with threonine at position 143, corresponding to S-protein subtype ad]
inhibition of attachment of anti-HBs to HBsAg-coated wells, preliminary results (in words) [1]: inhibited the attachment of anti-HBs to HBsAg-coated wells | T-cell proliferative response / tolerance of replacement (in words) [2]: most favored replacement | T-cell proliferative response / tolerance of replacement (in words) [3]: much more effective in eliciting proliferation of T-cells from mice immunized with HBsAg ad in comparison with the ay specific peptide

CTKPSDGNC
IC50 ([1]; HBsAg-coated wells, rabbit antiserum to S(135-155) diluted 150-fold, read-out: concentration of peptide at which a 50% inhibition of anti-HBs attachment occurred (C50)): 56 nM | inhibition of attachment of anti-HBs to HBsAg-coated wells, preliminary results (in words) [1]: inhibited the attachment of anti-HBs to HBsAg-coated wells | T-cell proliferative response / tolerance of replacement (in words) [2]: much more effective in eliciting proliferation of T-cells from mice immunized with HBsAg ayr in comparison with the ad-specific peptide | T-cell proliferative response / tolerance of replacement (in words) [4]: responded virtually equally | T-cell proliferative response / tolerance of replacement (in words) [3]: most tolerated

cyclic peptide corresponding to the sequence S(139-147): cyclic peptide S(139-147) from the S-protein subtype adw with a disulfide bond between residues (139-147)
binding / affinity to anti-HBs (in words) (anti-HBs): affinity similar to that determined for the reaction between native HBsAg and anti-HBs | antibodies elicited (in words) (native HBsAg): elicited antibodies reactive with native HBsAg

peptide S(139-147): peptide S(139-147) in both linear and cyclic forms (LYLPAGGSS; also: linear and cyclic forms; UniProt P03141 139-147, looked up, fragment)
proliferation of T-helper lymphocytes (in words) [5]: elicited the proliferation of T-helper (Th) lymphocytes | proliferation of T-helper lymphocytes (in words) [6]: elicited the proliferation of T-helper (Th) lymphocytes
